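Results reflect a 48-hour exposure of cells in 96-well plates to compound at five concentrations. At the GI50, growth is halved. The concentration for full growth arrest is given as TGI.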
Key:
Experiment in all cases: growth of human tumour cells (NCI), 48 h
ACHN renal = tested on: ACHN renal
OVCAR-3 ovarian = tested on: OVCAR-3 ovarian
T-47D breast = tested on: T-47D breast
SNB-75 CNS = tested on: SNB-75 CNS
RXF 393 renal = tested on: RXF 393 renal
PC-3 prostate = tested on: PC-3 prostate
MDA-MB-231 breast = tested on: MDA-MB-231 breast
HCT-116 colon = tested on: HCT-116 colon
IGROV1 ovarian = tested on: IGROV1 ovarian
MALME-3M melanoma = tested on: MALME-3M melanoma

| Compound | TGI (ACHN renal) [µM] | TGI (OVCAR-3 ovarian) [µM] | TGI (T-47D breast) [µM] | TGI (SNB-75 CNS) [µM] | TGI (RXF 393 renal) [µM] | TGI (PC-3 prostate) [µM] | TGI (MDA-MB-231 breast) [µM] | TGI (HCT-116 colon) [µM] | TGI (IGROV1 ovarian) [µM] | GI50 (ACHN renal) [µM] | GI50 (OVCAR-3 ovarian) [µM] | GI50 (T-47D breast) [µM] | GI50 (SNB-75 CNS) [µM] | GI50 (RXF 393 renal) [µM] | GI50 (PC-3 prostate) [µM] | GI50 (MDA-MB-231 breast) [µM] | GI50 (HCT-116 colon) [µM] | TGI (MALME-3M melanoma) [µM] | GI50 (MALME-3M melanoma) [µM] | GI50 (IGROV1 ovarian) [µM] |
| --- | --- | --- | --- | --- | --- | --- | --- | --- | --- | --- | --- | --- | --- | --- | --- | --- | --- | --- | --- | --- |
| COc1ccc(NC(=S)C#N)cc1 | > 100 | > 100 | > 100 | > 100 | > 100 | > 100 | > 100 | > 100 | – | – | – | – | – | – | – | – | – | – | – | – |
| O=CC1CCC=CC1NC(=O)OCc1ccccc1 (stereo not drawn) | > 100 | – | – | 94.3 | > 100 | – | – | > 100 | > 100 | – | – | – | – | – | – | – | – | – | – | – |
| COC1=CC(c2ccc[nH]2)=N/C1=C\c1[nH]c(C)c(C(=O)Oc2ccccc2)c1C | 1.17 | 1.18 | 1.8 | – | 1.78 | > 100 | 0.457 | 1.17 | – | 0.23 | 0.212 | 0.403 | 0.274 | 0.267 | 0.117 | 0.0795 | 0.0427 | – | – | – |
| O=C(CCC(=O)Nc1ccc(Cl)cc1)CC(=O)c1ccc2ccccc2c1 | > 100 | > 100 | – | > 100 | > 100 | – | – | > 100 | > 100 | – | – | – | – | – | – | – | – | > 100 | – | – |
| O=C(Nc1ccccc1)n1cc(-c2ccccn2)c(N2CCOCC2)n1 | > 100 | 29.5 | – | 43.7 | – | – | – | > 100 | > 100 | – | – | – | – | – | – | – | – | 8.78 | – | – |
| CN(C)CCCOc1ccc(/C=C2/CCC/C(=C/c3ccc(OCCCN(C)C)cc3)C2=O)cc1 | 4.13 | 5.56 | – | 2.61 | 2.98 | – | – | 2.76 | 6.78 | – | – | – | – | – | – | – | – | 3.32 | – | – |
| CC[O-].CC[O-].COc1ccc(C(=O)[CH-]C(C)=O)cc1OC.COc1ccc(C(=O)[CH-]C(C)=O)cc1OC.[Ti+4] | > 100 | > 100 | – | > 100 | 99.7 | – | – | > 100 | > 100 | 35.9 | 46.4 | – | 26.9 | 34.1 | – | – | > 100 | 86.6 | 35.1 | 54.8 |
| C/C=C(\C)c1cc(=O)c2c(C)cc3c(c2o1)C(OC)(OC(C)=O)c1c(O)c(C2CC(C)(N(C)C)C(OC(C)=O)C(C)O2)cc(C2CC(N(C)C)C(OC(C)=O)C(C)O2)c1C3=O (stereo not drawn) | 1.52 | > 41.8 | 17.6 | 6.44 | – | > 100 | 1.49 | > 34.1 | 57.1 | – | – | – | – | – | – | – | – | 2.37 | – | – |
| Cc1cc2nc3c(=O)[nH]c(=O)nc-3n(CC(O)C(O)C(O)CO)c2cc1N (stereo not drawn) | > 100 | > 100 | – | > 100 | – | – | – | > 100 | > 100 | – | – | – | – | – | – | – | – | – | – | – |
| O=C[C@]12CC=C3OC4OC5(CCCCC5)OC4[C@H]3[C@H]1C(=O)C=CC2=O (stereo partly drawn) | 58.5 | – | – | – | 25.9 | – | – | 38.4 | – | – | – | – | – | – | – | – | – | 34.4 | – | – |
| c1ccc(COCC[P+](c2ccccc2)(c2ccccc2)c2ccccc2)cc1 | 23.5 | 17.8 | 21.6 | 6.76 | – | 5.32 | 14.2 | 12.5 | 11.9 | 4.56 | 1.07 | 0.259 | 1.44 | – | 0.519 | 2.36 | 0.679 | – | – | 1.08 |
| O=c1c2ccccc2nc2n1CCc1c-2[nH]c2cc3c(cc12)OCO3 | > 25 | – | > 25 | 22 | – | > 25 | > 25 | > 25 | > 25 | – | – | – | – | – | – | – | – | – | – | – |

From PubChem BioAssay (NCI)
